Measurements reported in patent US20220170930A1, “METHOD FOR SCREENING COMPOUND FOR TREATING OR PREVENTING POLYQ-RELATED NEURODEGENERATIVE DISEASES” (FUDAN UNIVERSITY, priority 2019, published 2022).
pKd: −log10 of the molar value.

Experiments:
[1] = target: T1, flHTT-Q73 (Homo sapiens, UniProt P42858, INS38QQQQQQQQQQQQQQQQQQQQQQQQQQQQQQQQQQQQQQQQQQQQQQQQQQQQ); assay: MST affinity with flHTT-Q73; format: binding
T1 construct: LC3B, full-length mHTT (flHTT-Q73) and full-length HTT-Q23 (flHTT-Q23); protein A (N, cleaved yes); made in house; host or cells: human embryonic kidney E293 cells

[2] = system: mHTT; assay: Western-blot mHTT level in primary cultured cortical neurons; format: cell-based, mouse; conditions: 2 days
Procedure: (§1) Primary cultured cortical neurons: The brains of Hdh^Q140/Q7 and Hdh^Q7/Q7 newborn mice (P0) were dissected, digested, dissociated, and cultured.
(§2) (1) The primary cultured Hdh^Q140/Q7 and Hdh^Q7/Q7 mouse cortical neuron cells were treated with the compound for 2 days.

[3] = target: T2, mutant ATXN1 protein (His-ATXN1-Q92) (Homo sapiens, UniProt P54253, INS208QQQQQQQQQQQQQQQQQQQQQQQQQQQQQQQQQQQQQQQQQQQQQQQQQQQQQQQQQQQQQQQQQQQQQQQQQQQQQQQQ); assay: HTRF mutant ATXN1 level in His-ATXN1-Q92-expressing cells; format: cell-based; conditions: 100 nM, 2 days, anti-His-Tb/MW1-D2
T2 construct: expressed in transfected cells; host or cells: HEK293T cells (ATCC, CRL-3216)
T2 sequence (P54253 with tags, fused parts or gaps with the stated changes): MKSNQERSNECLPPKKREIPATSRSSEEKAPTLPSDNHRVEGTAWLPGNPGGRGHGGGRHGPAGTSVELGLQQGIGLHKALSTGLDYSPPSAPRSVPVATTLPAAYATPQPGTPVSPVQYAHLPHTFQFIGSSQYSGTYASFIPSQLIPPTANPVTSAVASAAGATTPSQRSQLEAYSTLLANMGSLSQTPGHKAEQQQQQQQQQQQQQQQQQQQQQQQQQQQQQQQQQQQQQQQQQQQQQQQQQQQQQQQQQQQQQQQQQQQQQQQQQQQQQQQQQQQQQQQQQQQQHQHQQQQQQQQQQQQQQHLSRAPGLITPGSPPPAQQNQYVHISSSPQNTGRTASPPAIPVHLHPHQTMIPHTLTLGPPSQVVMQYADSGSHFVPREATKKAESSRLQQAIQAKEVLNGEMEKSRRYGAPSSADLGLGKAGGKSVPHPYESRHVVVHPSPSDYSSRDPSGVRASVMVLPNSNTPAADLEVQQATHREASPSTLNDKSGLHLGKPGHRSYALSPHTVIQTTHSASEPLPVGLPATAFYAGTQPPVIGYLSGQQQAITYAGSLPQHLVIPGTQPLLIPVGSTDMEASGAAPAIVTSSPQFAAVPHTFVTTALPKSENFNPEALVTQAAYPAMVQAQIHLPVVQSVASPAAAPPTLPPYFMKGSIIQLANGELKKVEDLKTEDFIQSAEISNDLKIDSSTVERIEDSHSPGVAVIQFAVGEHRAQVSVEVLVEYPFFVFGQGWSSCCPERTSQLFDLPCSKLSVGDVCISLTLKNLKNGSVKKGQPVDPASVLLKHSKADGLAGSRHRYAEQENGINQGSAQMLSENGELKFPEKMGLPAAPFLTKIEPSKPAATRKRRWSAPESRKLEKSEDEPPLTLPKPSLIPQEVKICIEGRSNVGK

[4] = target: T3, full-length mHTT (flHTT-Q73) (Homo sapiens, UniProt P42858, INS38QQQQQQQQQQQQQQQQQQQQQQQQQQQQQQQQQQQQQQQQQQQQQQQQQQQQ); assay: OI-RD affinity reaction parameters with flHTT-Q73; format: binding
T3 construct: LC3B, full-length mHTT (flHTT-Q73) and full-length HTT-Q23 (flHTT-Q23); protein A (N, cleaved yes); made in house; host or cells: human embryonic kidney E293 cells
T3 sequence (P42858 with tags, fused parts or gaps with the stated changes): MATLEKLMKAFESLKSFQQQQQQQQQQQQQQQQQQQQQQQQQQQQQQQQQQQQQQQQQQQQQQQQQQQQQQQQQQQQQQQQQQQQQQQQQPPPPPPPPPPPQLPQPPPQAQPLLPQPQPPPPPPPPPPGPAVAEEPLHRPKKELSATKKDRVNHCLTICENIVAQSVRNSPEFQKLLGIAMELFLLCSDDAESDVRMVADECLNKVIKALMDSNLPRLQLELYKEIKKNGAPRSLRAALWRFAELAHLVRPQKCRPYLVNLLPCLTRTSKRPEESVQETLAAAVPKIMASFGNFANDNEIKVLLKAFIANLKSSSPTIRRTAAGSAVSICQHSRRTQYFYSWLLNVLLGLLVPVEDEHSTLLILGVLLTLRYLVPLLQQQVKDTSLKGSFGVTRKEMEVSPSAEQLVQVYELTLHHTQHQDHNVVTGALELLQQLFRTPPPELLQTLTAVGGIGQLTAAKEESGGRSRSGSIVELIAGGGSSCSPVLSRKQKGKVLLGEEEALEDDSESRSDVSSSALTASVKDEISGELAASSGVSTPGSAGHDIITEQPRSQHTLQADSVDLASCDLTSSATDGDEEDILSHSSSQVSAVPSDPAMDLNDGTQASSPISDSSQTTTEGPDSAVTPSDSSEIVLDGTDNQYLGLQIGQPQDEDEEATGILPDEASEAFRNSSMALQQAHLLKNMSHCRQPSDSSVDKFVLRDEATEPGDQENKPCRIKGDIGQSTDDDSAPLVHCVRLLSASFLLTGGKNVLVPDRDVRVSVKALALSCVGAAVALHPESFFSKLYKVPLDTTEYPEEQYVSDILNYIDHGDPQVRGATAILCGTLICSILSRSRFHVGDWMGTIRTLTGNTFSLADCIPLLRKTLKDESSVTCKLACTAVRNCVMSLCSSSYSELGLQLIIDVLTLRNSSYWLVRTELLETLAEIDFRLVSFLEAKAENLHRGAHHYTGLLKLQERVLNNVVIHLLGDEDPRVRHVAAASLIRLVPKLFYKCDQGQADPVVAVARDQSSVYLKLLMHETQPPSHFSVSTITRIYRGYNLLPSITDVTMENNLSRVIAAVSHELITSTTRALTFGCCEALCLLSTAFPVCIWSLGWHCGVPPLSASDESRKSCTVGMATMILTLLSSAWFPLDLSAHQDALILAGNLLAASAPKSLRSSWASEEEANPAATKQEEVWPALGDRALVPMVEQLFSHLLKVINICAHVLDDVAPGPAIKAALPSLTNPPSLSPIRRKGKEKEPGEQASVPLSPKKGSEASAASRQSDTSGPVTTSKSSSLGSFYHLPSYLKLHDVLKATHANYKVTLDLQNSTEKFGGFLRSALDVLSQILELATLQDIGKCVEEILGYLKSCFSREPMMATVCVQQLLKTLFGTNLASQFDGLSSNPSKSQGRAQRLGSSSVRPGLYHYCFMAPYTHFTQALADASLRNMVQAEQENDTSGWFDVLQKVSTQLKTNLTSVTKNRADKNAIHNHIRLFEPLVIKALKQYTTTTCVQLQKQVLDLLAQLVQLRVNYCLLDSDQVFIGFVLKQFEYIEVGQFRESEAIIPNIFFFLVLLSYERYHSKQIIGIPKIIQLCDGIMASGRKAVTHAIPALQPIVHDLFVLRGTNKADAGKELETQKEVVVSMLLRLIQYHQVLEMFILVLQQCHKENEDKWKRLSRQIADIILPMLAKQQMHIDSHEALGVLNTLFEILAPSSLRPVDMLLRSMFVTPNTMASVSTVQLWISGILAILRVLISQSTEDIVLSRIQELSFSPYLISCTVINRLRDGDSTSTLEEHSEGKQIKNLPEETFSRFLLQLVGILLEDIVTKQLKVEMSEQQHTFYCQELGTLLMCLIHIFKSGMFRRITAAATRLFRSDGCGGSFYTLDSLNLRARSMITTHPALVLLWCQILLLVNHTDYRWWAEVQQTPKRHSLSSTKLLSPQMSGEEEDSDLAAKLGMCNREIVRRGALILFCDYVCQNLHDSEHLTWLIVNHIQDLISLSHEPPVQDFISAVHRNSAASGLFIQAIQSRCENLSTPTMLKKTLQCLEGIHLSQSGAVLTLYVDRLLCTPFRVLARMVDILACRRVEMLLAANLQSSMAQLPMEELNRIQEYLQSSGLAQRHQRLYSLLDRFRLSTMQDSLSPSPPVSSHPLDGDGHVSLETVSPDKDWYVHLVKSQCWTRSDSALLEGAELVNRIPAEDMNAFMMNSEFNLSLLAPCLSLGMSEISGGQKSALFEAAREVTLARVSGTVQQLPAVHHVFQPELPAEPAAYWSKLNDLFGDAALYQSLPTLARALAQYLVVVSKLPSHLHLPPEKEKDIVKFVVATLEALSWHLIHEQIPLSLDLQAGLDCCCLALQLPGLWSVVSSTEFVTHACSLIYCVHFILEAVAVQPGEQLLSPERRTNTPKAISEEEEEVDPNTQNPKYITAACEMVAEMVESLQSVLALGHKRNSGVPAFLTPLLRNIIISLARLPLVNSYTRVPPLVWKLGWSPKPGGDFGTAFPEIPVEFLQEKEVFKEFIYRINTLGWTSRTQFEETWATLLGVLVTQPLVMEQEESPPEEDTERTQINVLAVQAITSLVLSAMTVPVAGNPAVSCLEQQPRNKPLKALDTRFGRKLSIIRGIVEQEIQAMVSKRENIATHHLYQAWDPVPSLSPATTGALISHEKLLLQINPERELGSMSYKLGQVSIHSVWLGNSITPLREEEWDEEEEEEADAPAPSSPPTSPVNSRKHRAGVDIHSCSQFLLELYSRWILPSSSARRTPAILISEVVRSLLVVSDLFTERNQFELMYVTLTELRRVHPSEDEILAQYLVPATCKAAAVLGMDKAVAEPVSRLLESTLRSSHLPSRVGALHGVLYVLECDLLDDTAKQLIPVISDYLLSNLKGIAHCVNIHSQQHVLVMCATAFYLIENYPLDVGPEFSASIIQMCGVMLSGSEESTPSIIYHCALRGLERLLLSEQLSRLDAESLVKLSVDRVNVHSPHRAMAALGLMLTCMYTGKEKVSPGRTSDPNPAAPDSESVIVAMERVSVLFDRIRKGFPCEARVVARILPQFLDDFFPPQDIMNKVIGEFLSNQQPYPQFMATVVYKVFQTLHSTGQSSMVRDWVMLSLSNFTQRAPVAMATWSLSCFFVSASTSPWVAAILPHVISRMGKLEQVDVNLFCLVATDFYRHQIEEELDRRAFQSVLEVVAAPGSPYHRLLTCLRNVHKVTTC
Source text: (§3) Each compound was printed in triplicates on the microarray. 01-RD was used to measure the affinity reaction parameters of the compound with LC3B, full-length mHTT (flHTT-Q73) and full-length HTT-Q23 (flHTT-Q23).

[5] = target: T4, LC3B (Homo sapiens, UniProt Q9GZQ8); assay: MST affinity with LC3B; format: binding
T4 construct: His8 (N, cleaved yes); GST (from pGEX-6P1) (N, cleaved yes); made in house; host or cells: E. coli BL21(DE3)pLsyS

[6] = target: T4, LC3B; assay: OI-RD affinity with LC3B; format: binding
Procedure: 01-RD images before and after incubation with the target protein was obtained following the method in (1).
(§4) The difference images of the above steps (1), (2), (3) (the image after incubation minus the image before incubation) was analyzed respectively.
as §3

[7] = target: T5, His-ATXN1-Q92 (Homo sapiens, UniProt P54253, INS208QQQQQQQQQQQQQQQQQQQQQQQQQQQQQQQQQQQQQQQQQQQQQQQQQQQQQQQQQQQQQQQQQQQQQQQQQQQQQQQQ); assay: OI-RD affinity screening with His-ATXN1-Q92; format: binding; conditions: OI-RD difference images
T5 construct: made in house; host or cells: HEK293T cells (ATCC, CRL-3216)
T5 sequence (P54253 with tags, fused parts or gaps with the stated changes): as the sequence (P54253 with tags, fused parts or gaps with the stated changes) above
Procedure: (1) PolyQ-ATXN1 cDNA (where polyQ is Q92) was synthesized de novo and subcloned into pcDNA vector. It transfected into HEK293T cells (ATCC, CRL-3216) to obtain cells expressing His-ATXN1-Q92 (SEQ ID NO: 3 with a His tag at the N-terminal).
(2) The His-ATXN1-Q92 expressed in (1) was purified to obtain ATXN1 with abnormally expanded polyQ.
To identify compound(s) that can bind to ATXN1 with abnormally expanded polyQ, screening was conducted using a method similar to step (1) of 1.1, except for that the target protein HTTexon1-Q72-MBP in step (1) of 1.1 was replaced with His-ATXN1-Q92.

[8] = target: T6, HTTexon1-Q25-MBP (Homo sapiens, UniProt P42858, DUP35-38); assay: OI-RD affinity with HTTexon1-Q25; format: binding
T6 construct: made in house; host or cells: mammalian expression vector pTT5SH8Q2
T6 sequence (P42858 with tags, fused parts or gaps DUP35-38): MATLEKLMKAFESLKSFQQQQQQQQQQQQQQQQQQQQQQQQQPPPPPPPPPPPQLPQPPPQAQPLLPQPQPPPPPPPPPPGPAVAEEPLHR
Procedure: OI-RD images before and after incubation with the target protein was obtained following the method in (1).
as §4
(§5) Each compound was printed in triplicates on the microarray. 01-RD was used to measure the affinity reaction parameters of compounds with HTTexon1-Q72 and HTTexon1-Q25.

[9] = target: T7, mutant ATXN3 protein (ATXN3-Q74) (Homo sapiens, UniProt P54252, G306R/INS305QQQQQQQQQQQQQQQQQQQQQQQQQQQQQQQQQQQQQQQQQQQQQQQQQQQQQQQQQQQQQQQQ/V212M); assay: Western-blot mutant ATXN3 level in SCA3 patient fibroblasts; format: cell-based; conditions: 100 nM (compound 4: 50 nM), 2 days
T7 construct: endogenous in cells; host or cells: SCA3 patient fibroblasts (Q74)
Procedure: (§6) Then the levels of mutant ATXN3 protein (ATXN3-Q74, SEQ ID NO: 2) and wild-type ATXN3 protein (ATXN3-Q27, SEQ ID NO: 7) were determined by Western-blots (FIG. 26). […] Therefore, the compound of the present invention can be used to treat SCA3.

[10] = target: T8, HTTexon1-Q72-MBP (Homo sapiens, UniProt P42858, INS38QQQQQQQQQQQQQQQQQQQQQQQQQQQQQQQQQQQQQQQQQQQQQQQQQQQ); assay: OI-RD affinity screening and affinity reaction parameters with HTTexon1-Q72; format: binding
T8 construct: made in house; host or cells: mammalian expression vector pTT5SH8Q2
T8 sequence (P42858 with tags, fused parts or gaps, stated change not applied): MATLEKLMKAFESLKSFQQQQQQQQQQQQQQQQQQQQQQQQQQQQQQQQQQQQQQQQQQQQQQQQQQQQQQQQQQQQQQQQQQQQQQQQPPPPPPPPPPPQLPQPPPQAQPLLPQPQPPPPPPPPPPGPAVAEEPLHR
Procedure: Each compound was printed in duplicate on the microarray. The compound not fixed on the surface of the chip was washed away. The chip was sealed and cleaned. 01-RD microscope was applied to scan the images. […] The chips are cleaned and scanned.
as §4, §5

[11] = target: T9, wild-type ATXN3 protein (ATXN3-Q27) (Homo sapiens, UniProt P54252, G306R/INS305QQQQQQQQQQQQQQQQQ/V212M); assay: Western-blot wild-type ATXN3 level in fibroblasts; format: cell-based; conditions: 100 nM (compound 4: 50 nM), 2 days
T9 construct: endogenous in cells; host or cells: wild-type fibroblasts (Q27) and/or the normal allele in SCA3 patient fibroblasts
T9 sequence (P54252 with tags, fused parts or gaps isoform P54252-1 with the stated changes): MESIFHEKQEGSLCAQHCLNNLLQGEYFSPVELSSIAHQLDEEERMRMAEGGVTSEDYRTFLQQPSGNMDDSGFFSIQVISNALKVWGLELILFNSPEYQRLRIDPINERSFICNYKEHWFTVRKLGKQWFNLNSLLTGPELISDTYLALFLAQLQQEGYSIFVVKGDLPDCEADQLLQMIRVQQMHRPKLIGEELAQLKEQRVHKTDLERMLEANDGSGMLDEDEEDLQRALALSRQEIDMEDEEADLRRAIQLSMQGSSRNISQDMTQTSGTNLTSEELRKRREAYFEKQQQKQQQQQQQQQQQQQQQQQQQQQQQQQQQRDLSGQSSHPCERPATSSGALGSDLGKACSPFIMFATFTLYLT
Procedure: as §6

[12] = target: T10, wtHTT (Mus musculus, UniProt P42859); assay: Western-blot wtHTT level in primary cultured cortical neurons; format: cell-based; conditions: Hdh^Q7/Q7 cortical neurons, 2 days
T10 construct: endogenous in cells; host or cells: primary cortical neurons of newborn Hdh Q140/Q7 and Hdh Q7/Q7 mice
Procedure: as §1, §2

[13] = target: T11, mHTT (Homo sapiens, UniProt P42858, INS38QQQQQQQQQQQQQQQQQQQQQQQQQQ); assay: HTRF mHTT level in HD patient iPSC-derived neurons; format: cell-based; conditions: iPSC-derived neurons (Q47)
T11 construct: endogenous in cells; host or cells: HD patient iPSC-derived neurons (Q47)

[14] = system: mHTT; assay: Intracerebroventricular injection, mHTT and wtHTT in cortices of HD mice; format: in vivo, mouse; conditions: mouse, in vivo
Procedure: Experimental animals: Hdh^Q140/Q7 mice (3 months old), 4 in each group.
Each test includes three repetitions for each sample, and the mean values was calculated (FIG. 16).

[15] = system: polyQ-GFP (Q72-GFP, Q25-GFP); assay: polyQ-GFP level in HEK293T cells by Incucyte fluorescence counting; format: cell-based; conditions: Q72-GFP vs Q25-GFP expressing HEK293T cells, 100 nM compound 1, 100 nM compound 3 or 50 nM compound 4, 2 days
Source text: (1) PolyQ-GFP cDNA sequence (expressing Met-polyQ-GFP, wherein polyQ was Q72 or Q25) was synthesized de novo and subcloned into pcDNA vector. It was transfected into HEK293T cells (ATCC, CRL-3216) through forward transfection to obtain Q72-GFP expressing cells and Q25-GFP expressing cells, respectively. And the same method was used to obtain cells expressing Q53-GFP, cells expressing Q46-GFP, and cells expressing Q38-GFP.
The Q72-GFP expressing cells and Q25-GFP expressing cells obtained in step (1) of 10.1 were used. […] Then the level of polyQ-GFP was measured by Incucyte fluorescence counting (FIG. 25).

[16] = system: Q25-GFP; assay: OI-RD affinity screening with Q25-GFP; format: binding; conditions: OI-RD difference images
Source text: (1) PolyQ-GFP cDNA sequence (expressing Met-polyQ-GFP, wherein polyQ was Q72 or Q25) was synthesized de novo and subcloned into pcDNA vector. […] And the same method was used to obtain cells expressing Q53-GFP, cells expressing Q46-GFP, and cells expressing Q38-GFP.

[17] = target: T12, MBP-ATXN3-Q28 (Homo sapiens, UniProt P54252, INS305QQQQQQQQQQQQQQQQQQ); assay: OI-RD affinity screening with MBP-ATXN3-Q28; format: binding; conditions: OI-RD difference images
T12 construct: His8 with TEV protease cleavage site; made in house; host or cells: Escherichia coli Rosetta(DE3)pLsyS
T12 sequence (P54252 with tags, fused parts or gaps isoform P54252-4 with the stated changes): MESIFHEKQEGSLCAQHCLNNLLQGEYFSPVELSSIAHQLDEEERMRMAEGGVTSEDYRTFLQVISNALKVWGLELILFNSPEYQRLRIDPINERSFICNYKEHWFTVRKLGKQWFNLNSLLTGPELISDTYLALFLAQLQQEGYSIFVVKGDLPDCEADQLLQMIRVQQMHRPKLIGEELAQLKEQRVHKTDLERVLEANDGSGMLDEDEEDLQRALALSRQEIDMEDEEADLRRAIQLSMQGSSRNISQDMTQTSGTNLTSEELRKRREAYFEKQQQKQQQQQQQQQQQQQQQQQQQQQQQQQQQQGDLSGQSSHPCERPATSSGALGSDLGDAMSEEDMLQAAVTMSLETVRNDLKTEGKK
Procedure: (§7) Screening was conducted using a method similar to 1.1, except for that the target protein HTTexon1-Q72-MBP in step (1) of 1.1 was replaced with MBP-ATXN3-Q68 and the target protein HTTexon1-Q25-MBP in step (2) of 1.1 was replaced with MBP-ATXN3-Q28, to obtain compounds that can selectively bind to ATXN3 with abnormally expanded polyQ (MBP-ATXN3-Q68).

[18] = target: T13, MBP-ATXN3-Q68 (Homo sapiens, UniProt P54252, INS305QQQQQQQQQQQQQQQQQQQQQQQQQQQQQQQQQQQQQQQQQQQQQQQQQQQQQQQQQQ); assay: OI-RD affinity screening with MBP-ATXN3-Q68; format: binding; set-up: His8 with TEV protease cleavage site; made in house; host or cells: Escherichia coli Rosetta(DE3)pLsyS; conditions: OI-RD difference images
Procedure: as §7

[19] = target: T13, MBP-ATXN3-Q68; assay: MST affinity with MBP-ATXN3-Q68
Procedure: (§9) The affinity of the compound with full-length HTT and LC3B was verified with micro thermophoresis (MST) using Monolith NT.115 instrument from NanoTemper Technologies. The reaction buffer was 20 mM HEPES, pH 7.4, 150 mM NaCl.

[20] = target: T12, MBP-ATXN3-Q28; assay: MST affinity with MBP-ATXN3-Q28; format: binding
Procedure: Protein concentration was 500 nM.

[21] = system: GFP; assay: OI-RD affinity screening with GFP; format: binding; conditions: OI-RD difference images
Procedure: (§8) To identify compound(s) that can selectively bind to proteins containing expanded polyglutamine, screening was conducted using a method similar to 1.1, except for that the target protein HTTexon1-Q72-MBP in step (1) of 1.1 was replaced with the polyQ-GFP protein prepared in 10.1, and the target protein HTTexon1-Q25-MBP in step (2) of 1.1 was replaced with GFP.

[22] = system: proteins with expanded polyglutamine (polyQ-GFP); assay: OI-RD affinity screening with polyQ-GFP proteins; format: binding; conditions: OI-RD difference images
Procedure: as §8

[23] = system: Q25-GFP; assay: MST affinity with Q25-GFP
Procedure: as §9

Structure (SMILES): Cc1ccc(C(=O)N(CCCN)[C@@H](c2nc3cc(Cl)ccc3c(=O)n2Cc2ccccc2)C(C)C)cc1 [compound 2, ispinesib]
- pKd [1]: 6.89
- concentration range in which the effect of selectively reducing mHTT levels was observed [2]: 30 to 100 nM
- preferred concentration for selectively reducing mHTT levels [2]: 100 nM
- level of mutant ATXN1 protein (His-ATXN1-Q92) [3]: Decreased levels of mutant ATXN1 were observed
- pKd [4]: 6.49
- Koff ([4]; OI-RD, flHTT-Q73): 0.0207 min⁻¹
- Kon ([4]; OI-RD, flHTT-Q73): 6.43e-05 min/nM
- pKd [5]: 5.51
- pKd [6]: 6.62
- binding to LC3B ([6]; OI-RD difference images): can bind
- Koff ([6]; OI-RD, LC3B): 0.00586 min⁻¹
- Kon ([6]; OI-RD, LC3B): 2.46e-05 min/nM
- binding to His-ATXN1-Q92 [7]: can bind
- binding to HTTexon1-Q25 [8]: do not bind
- mutant ATXN3 protein level [9]: A decrease in mutant ATXN3 protein level was observed
- pKd [10]: 7.53
- binding to HTTexon1-Q72 ([10]; OI-RD difference images): can bind
- Koff ([10]; OI-RD, HTTexon1-Q72): 0.00623 min⁻¹
- Kon ([10]; OI-RD, HTTexon1-Q72): 0.000213 min/nM
- wild-type ATXN3 protein level [11]: no decrease in wild-type ATXN3 protein level was observed
- wtHTT levels [12]: did not reduce wtHTT levels
- mHTT levels ([13]; 2B7/MW1): Decreased mHTT levels were observed
- mHTT levels ([13]; presence of the autophagy inhibitor NH4Cl): this effect was not observed

Structure (SMILES): O=C1Nc2ccc(Br)cc2/C1=C/c1cc(O)c(O)c(Br)c1 [compound 3]
- mHTT level in cortices [14]: significantly reduced mHTT level
- level of mutant ATXN1 protein (His-ATXN1-Q92) [3]: Decreased levels of mutant ATXN1 were observed
- level of proteins containing expanded polyglutamine in cells (polyQ-GFP) [15]: can selectively reduce the level
- binding to Q25-GFP [16]: did not bind
- binding to His-ATXN1-Q92 [7]: can bind
- binding to MBP-ATXN3-Q28 [17]: did not bind
- binding to MBP-ATXN3-Q68 [18]: binded
- mutant ATXN3 protein level [9]: A decrease in mutant ATXN3 protein level was observed
- pKd [19]: 5.99
- wild-type ATXN3 protein level [11]: no decrease in wild-type ATXN3 protein level was observed
- binding affinity with normal ATXN3 protein (MBP-ATXN3-Q28) [20]: no binding affinity
- binding to GFP [21]: did not bind
- binding affinity to proteins with 38 or more glutamine repeats [22]: showed certain binding affinity
- binding affinity to Q25-GFP [23]: no binding affinity
